Measurements: ChEMBL document CHEMBL1149006, “Isolation and characterization of a new triterpene from Iris missouriensis” (1986)
Converted amounts (≈) assume the structure as drawn.

Tested on: P388
Assay: Cytotoxicity against mouse P388 cells
Type: functional
Details: read-out: ED50 (the source's name)

| SMILES | EC50 [µg/mL] |
| --- | --- |
| CC[C@H](/C=C/[C@@H](C)[C@H]1CC[C@H]2[C@@H]3[C@@H](O)C=C4C[C@@H](O)CC[C@]4(C)[C@H]3CC[C@]12C)C(C)C | 0.1 (≈ 0.233 µM) |
| CC[C@H](CC[C@@H](C)[C@H]1CC[C@H]2[C@@H]3[C@@H](O)C=C4C[C@@H](O)CC[C@]4(C)[C@H]3CC[C@]12C)C(C)C | 0.2 (≈ 0.464 µM) |
